Results: the NIST ThermoML archive (doi:10.1021/je700428f)

Assay: xn = mol fraction of the nth substance listed
Conditions: 101 kPa, Liquid; for viscosity: Capillary tube (Ostwald / Ubbelohde) method

COC(C)(C)C [2-methoxy-2-methylpropane] + CCCCCCCCCC
Conditions | mass density [kg/m3] | viscosity [mPa·s]
308.15 K, x1 = 0.5005 | 719.62 | –
308.15 K, x1 = 0.6066 | 720.2 | –
308.15 K, x1 = 0.6866 | 720.81 | –
308.15 K, x1 = 0.7973 | 721.85 | –
308.15 K, x1 = 0.8999 | 723.26 | –
308.15 K, x1 = 1 | 724.82 | –
313.15 K, x1 = 0.1016 | – | 0.654
313.15 K, x1 = 0.1019 | 714.7 | –
313.15 K, x1 = 0.2002 | – | 0.614
313.15 K, x1 = 0.2041 | 714.74 | –
313.15 K, x1 = 0.3003 | – | 0.572
313.15 K, x1 = 0.3077 | 714.88 | –
313.15 K, x1 = 0.3999 | 715.03 | –
313.15 K, x1 = 0.4013 | – | 0.531
313.15 K, x1 = 0.4992 | – | 0.491
313.15 K, x1 = 0.5005 | 715.3 | –
313.15 K, x1 = 0.6005 | – | 0.449
313.15 K, x1 = 0.6066 | 715.7 | –
313.15 K, x1 = 0.6866 | 716.18 | –
313.15 K, x1 = 0.7 | – | 0.404
313.15 K, x1 = 0.7973 | 717 | –
313.15 K, x1 = 0.8005 | – | 0.362
313.15 K, x1 = 0.8999 | 718.16 | –
313.15 K, x1 = 1 | 719.42 | –
318.15 K, x1 = 0.1016 | – | 0.614
318.15 K, x1 = 0.1019 | 710.81 | –
318.15 K, x1 = 0.2002 | – | 0.579
318.15 K, x1 = 0.2041 | 710.74 | –
318.15 K, x1 = 0.3003 | – | 0.54
318.15 K, x1 = 0.3077 | 710.78 | –
318.15 K, x1 = 0.3999 | 710.82 | –
318.15 K, x1 = 0.4013 | – | 0.503
318.15 K, x1 = 0.4992 | – | 0.462
318.15 K, x1 = 0.5005 | 710.97 | –
318.15 K, x1 = 0.6005 | – | 0.426
318.15 K, x1 = 0.6066 | 711.2 | –
318.15 K, x1 = 0.6866 | 711.53 | –
318.15 K, x1 = 0.7 | – | 0.383
318.15 K, x1 = 0.7973 | 712.1 | –
318.15 K, x1 = 0.8999 | 713.01 | –
318.15 K, x1 = 1 | 713.96 | –
323.15 K, x1 = 0.1016 | – | 0.577
323.15 K, x1 = 0.1019 | 706.89 | –
323.15 K, x1 = 0.2002 | – | 0.546
323.15 K, x1 = 0.2041 | 706.73 | –
323.15 K, x1 = 0.3003 | – | 0.51
323.15 K, x1 = 0.3077 | 706.65 | –
323.15 K, x1 = 0.3999 | 706.59 | –
323.15 K, x1 = 0.4013 | – | 0.476
323.15 K, x1 = 0.4992 | – | 0.441
323.15 K, x1 = 0.5005 | 706.6 | –
323.15 K, x1 = 0.6005 | – | 0.406
323.15 K, x1 = 0.6066 | 706.67 | –
323.15 K, x1 = 0.6866 | 706.84 | –
323.15 K, x1 = 0.7 | – | 0.365
323.15 K, x1 = 0.7973 | 707.18 | –
323.15 K, x1 = 0.8999 | 707.81 | –
328.15 K, x1 = 0.1016 | – | 0.546
328.15 K, x1 = 0.1019 | 702.96 | –
328.15 K, x1 = 0.2002 | – | 0.517
328.15 K, x1 = 0.2041 | 702.7 | –
328.15 K, x1 = 0.3003 | – | 0.483
328.15 K, x1 = 0.3077 | 702.51 | –
328.15 K, x1 = 0.3999 | 702.33 | –
328.15 K, x1 = 0.4013 | – | 0.451
328.15 K, x1 = 0.4992 | – | 0.418
328.15 K, x1 = 0.5005 | 702.22 | –
328.15 K, x1 = 0.6005 | – | 0.386
328.15 K, x1 = 0.6066 | 702.11 | –
328.15 K, x1 = 0.6866 | 702.11 | –
328.15 K, x1 = 0.7 | – | 0.35
328.15 K, x1 = 0.7973 | 702.19 | –
328.15 K, x1 = 0.8999 | 702.55 | –
333.15 K, x1 = 0.1016 | – | 0.514
333.15 K, x1 = 0.1019 | 699 | –
333.15 K, x1 = 0.2002 | – | 0.489
333.15 K, x1 = 0.2041 | 698.64 | –
333.15 K, x1 = 0.3003 | – | 0.459
333.15 K, x1 = 0.3077 | 698.34 | –
333.15 K, x1 = 0.3999 | 698.05 | –
333.15 K, x1 = 0.4013 | – | 0.432
333.15 K, x1 = 0.4992 | – | 0.399
333.15 K, x1 = 0.5005 | 697.78 | –
333.15 K, x1 = 0.6005 | – | 0.371
333.15 K, x1 = 0.6066 | 697.5 | –
333.15 K, x1 = 0.6866 | 697.32 | –
333.15 K, x1 = 0.7973 | 697.15 | –
338.15 K, x1 = 0.1016 | – | 0.489
338.15 K, x1 = 0.1019 | 695.02 | –
338.15 K, x1 = 0.2002 | – | 0.466
338.15 K, x1 = 0.2041 | 694.56 | –
338.15 K, x1 = 0.3003 | – | 0.438
338.15 K, x1 = 0.3077 | 694.14 | –
338.15 K, x1 = 0.3999 | 693.73 | –
338.15 K, x1 = 0.4013 | – | 0.413
338.15 K, x1 = 0.4992 | – | 0.382
338.15 K, x1 = 0.5005 | 693.31 | –
338.15 K, x1 = 0.6005 | – | 0.359
338.15 K, x1 = 0.6066 | 692.86 | –
338.15 K, x1 = 0.6866 | 692.58 | –
338.15 K, x1 = 0.7973 | 692.06 | –
343.15 K, x1 = 0.1016 | – | 0.466
343.15 K, x1 = 0.1019 | 691.02 | –
343.15 K, x1 = 0.2002 | – | 0.445
343.15 K, x1 = 0.2041 | 690.46 | –
343.15 K, x1 = 0.3003 | – | 0.42
343.15 K, x1 = 0.3077 | 689.92 | –
343.15 K, x1 = 0.3999 | 689.38 | –
343.15 K, x1 = 0.4013 | – | 0.398
343.15 K, x1 = 0.4992 | – | 0.369
343.15 K, x1 = 0.5005 | 688.8 | –
343.15 K, x1 = 0.6066 | 688.18 | –
343.15 K, x1 = 0.6866 | 687.71 | –
343.15 K, x1 = 0.7973 | 686.92 | –
348.15 K, x1 = 0.1016 | – | 0.443
348.15 K, x1 = 0.1019 | 687.01 | –
348.15 K, x1 = 0.2002 | – | 0.424
348.15 K, x1 = 0.2041 | 686.34 | –
348.15 K, x1 = 0.3003 | – | 0.402
348.15 K, x1 = 0.3077 | 685.67 | –
348.15 K, x1 = 0.3999 | 685.01 | –
348.15 K, x1 = 0.4013 | – | 0.383
348.15 K, x1 = 0.5005 | 684.26 | –
348.15 K, x1 = 0.6066 | 683.43 | –
353.15 K, x1 = 0.1016 | – | 0.422
353.15 K, x1 = 0.1019 | 682.96 | –
353.15 K, x1 = 0.2002 | – | 0.406
353.15 K, x1 = 0.2041 | 682.18 | –
353.15 K, x1 = 0.3003 | – | 0.386
353.15 K, x1 = 0.3077 | 681.38 | –
353.15 K, x1 = 0.3999 | 680.59 | –
353.15 K, x1 = 0.4013 | – | 0.372
353.15 K, x1 = 0.5005 | 679.69 | –
353.15 K, x1 = 0.6066 | 678.65 | –
358.15 K, x1 = 0.1016 | – | 0.407
358.15 K, x1 = 0.1019 | 678.89 | –
358.15 K, x1 = 0.2002 | – | 0.388
358.15 K, x1 = 0.2041 | 678 | –
358.15 K, x1 = 0.3003 | – | 0.372
358.15 K, x1 = 0.3077 | 677.06 | –
358.15 K, x1 = 0.3999 | 676.14 | –
363.15 K, x1 = 0.1019 | 674.79 | –
363.15 K, x1 = 0.2041 | 673.78 | –
363.15 K, x1 = 0.3077 | 672.71 | –
363.15 K, x1 = 0.3999 | 671.66 | –
